Measurements: patent publication US20230295118A1 (EnhancedBio Inc., priority 2022, published 2023)
pIC50: −log10 of the molar value.

Key:
Format in all cases: cell-based
CDK6 = molecular target: T1, CDK6 (Homo sapiens, UniProt Q00534); test: CDK6 degradation (DC50, Dmax)
T1 construct: endogenous in cells

[1] = test system: mantle cell lymphoma cell (Mino or JeKo-1); test: Antiproliferative effect, MTS cell viability assay; settings: 72 h; for pIC50: mantle cell lymphoma cell (Mino or JeKo-1), MTS assay, read-out: IC50 (anti-proliferation)
How it was run: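 MTS read-out (formazan absorbance at 490 nm) after 72 h exposure of Mino cells to 0–1 μM compound (0.0001, 0.001, 0.01, 0.1, 1 μM). Palbociclib and abemaciclib served as positive controls.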

CDK4 = molecular target: T2, CDK4 (Homo sapiens, UniProt P11802); test: CDK4 degradation (DC50, Dmax)
T2 construct: endogenous in cells
T2 sequence (P11802 whole entry): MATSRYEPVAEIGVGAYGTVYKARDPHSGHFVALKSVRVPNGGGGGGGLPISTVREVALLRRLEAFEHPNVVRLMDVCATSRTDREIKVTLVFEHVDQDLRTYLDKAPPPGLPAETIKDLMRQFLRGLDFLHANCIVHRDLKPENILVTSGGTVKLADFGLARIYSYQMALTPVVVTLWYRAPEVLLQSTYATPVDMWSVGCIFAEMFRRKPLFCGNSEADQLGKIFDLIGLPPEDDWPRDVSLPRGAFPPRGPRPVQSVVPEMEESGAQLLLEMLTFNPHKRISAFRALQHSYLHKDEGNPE

T1 sequence (Q00534 whole entry): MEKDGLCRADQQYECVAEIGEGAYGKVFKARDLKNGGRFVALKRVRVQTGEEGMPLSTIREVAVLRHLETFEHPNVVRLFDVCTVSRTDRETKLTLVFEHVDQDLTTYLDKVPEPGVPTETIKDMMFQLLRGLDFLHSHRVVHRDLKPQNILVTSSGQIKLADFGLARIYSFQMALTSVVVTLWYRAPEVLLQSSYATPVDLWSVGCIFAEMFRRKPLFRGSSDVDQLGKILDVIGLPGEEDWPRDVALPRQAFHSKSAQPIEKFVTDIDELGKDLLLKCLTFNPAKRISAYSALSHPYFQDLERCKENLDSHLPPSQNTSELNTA

SMILES | DC50 (CDK6) | Dmax (CDK6) | pIC50 [1] | DC50 (CDK4) | Dmax (CDK4) | inhibition of cell proliferation of Mino cells ([1]; Mino cells, 0-1 μM, result in words)
CC(=O)c1c(C)c2cnc(Nc3ccc(N4CCN(C5CCN(C(=O)N6CCC(c7ccc8c(c7)C(=O)N(C7CCC(=O)NC7=O)C8=O)CC6)CC5)CC4)cn3)nc2n(C2CCCC2)c1=O (stereo not drawn) [Compound 37, 5-(1-(4-(4-(6-((6-acetyl-8-cyclopentyl-5-methyl-7-oxo-7,8-dihydropyrido[2,3-d]pyrimidin-2-yl)amino)pyridin-3-yl)piperazin-1-yl)piperidine-1-carbonyl)piperidin-4-yl)-2-(2,6-dioxopiperidin-3-yl)isoindoline-1,3-dione] | > 200 nM | > 50% | < 6.70 | > 200 nM | > 50% | –
CC(=O)c1c(C)c2cnc(Nc3ccc(N4CCN(C(=O)N5CCN(c6ccc7c(c6)CN(C6CCC(=O)NC6=O)C7=O)CC5)CC4)cn3)nc2n(C2CCCC2)c1=O (stereo not drawn) [Compound 2, 3-(5-(4-(4-(6-((6-acetyl-8-cyclopentyl-5-methyl-7-oxo-7,8-dihydropyrido[2,3-d]pyrimidin-2-yl)amino)pyridin-3-yl)piperazine-1-carbonyl)piperazin-1-yl)-1-oxoisoindolin-2-yl)piperidine-2,6-dione] | > 200 nM | > 60% | 6.70 to 7.30 | > 200 nM | > 60% | –
Cc1nc2c(F)cc(-c3nc(Nc4ccc(CC5CCN(C(=O)C6CCN(c7ccc8c(c7)CN(C7CCC(=O)NC7=O)C8=O)CC6)CC5)cn4)ncc3F)cc2n1C(C)C (stereo not drawn) [Compound 162, 3-(5-(4-(4-((6-((5-fluoro-4-(4-fluoro-1-isopropyl-2-methyl-1H-benzo[d]imnidazol-6-yl)pyrimidin-2-yl)amino)pyridin-3-yl)methyl)piperidine-1-carbonyl)piperidin-1-yl)-1-oxoisoindolin-2-yl)piperidine-2,6-dione] | > 200 nM | > 60% | 6.70 to 7.30 | 50 to 200 nM | > 60% | –
Cc1nc2c(F)cc(-c3nc(Nc4ccc(CN5CCN(C6CCN(c7ccc8c(c7)C(=O)N(C7CCC(=O)NC7=O)C8=O)CC6)CC5)cn4)ncc3F)cc2n1C(C)C (stereo not drawn) [Compound 165, 2-(2,6-dioxopiperidin-3-yl)-5-(4-(4-((6-((5-fluoro-4-(4-fluoro-1-isopropyl-2-methyl-1H-benzo[d]imidazol-6-yl)pyrimidin-2-yl)amino)pyridin-3-yl)methyl)piperazin-1-yl)piperidin-1-yl)isoindoline-1,3-dione] | 50 to 200 nM | > 80% | > 7.30 | 50 to 200 nM | > 80% | –
Cc1nc2c(F)cc(-c3nc(Nc4ccc(CN5CCN(CC6CCN(c7ccc(C(=O)NC8CCC(=O)NC8=O)cc7)CC6)CC5)cn4)ncc3F)cc2n1C(C)C (stereo not drawn) [Compound 151, N-(2,6-dioxopiperidin-3-yl)-4-(4-((4-((6-((5-fluoro-4-(4-fluoro-1-isopropyl-2-methyl-1H-benzo[d]imidazol-6-yl)pyrimidin-2-yl)amino)pyridin-3-yl)methyl)piperazin-1-yl)methyl)piperidin-1-yl)benzamide] | 50 to 200 nM | > 60% | > 7.30 | 50 to 200 nM | > 80% | –
Cc1nc2c(F)cc(-c3nc(Nc4ccc(CC5CCN(C6CCN(c7ccc(C(=O)NC8CCC(=O)NC8=O)cc7)CC6)CC5)cn4)ncc3F)cc2n1C(C)C (stereo not drawn) [Compound 171, N-(2,6-dioxopiperidin-3-yl)-4-(4-((6-((5-fluoro-4-(4-fluoro-1-isopropyl-2-methyl-1H-benzo[d]imidazol-6-yl)pyrimidin-2-yl)amino)pyridin-3-yl)methyl)-[1,4′-bipiperidin]-1′-yl) benzamide] | 50 to 200 nM | > 60% | 6.70 to 7.30 | 50 to 200 nM | > 60% | –
CC(=O)c1c(C)c2cnc(Nc3ccc(N4CCN(CCN5CCN(C(=O)Nc6ccc7c(c6)C(=O)N(C6CCC(=O)NC6=O)C7=O)CC5)CC4)cn3)nc2n(C2CCCC2)c1=O (stereo not drawn) [Compound 43, 4-(2-(4-(6-((6-acetyl-8-cyclopentyl-5-methyl-7-oxo-7,8-dihydropyrido[2,3-d]pyrimidin-2-yl)amino)pyridin-3-yl)piperazin-1-yl)ethyl)-N-(2-(2,6-dioxopiperidin-3-yl)-1,3-dioxoisoindolin-5-yl)piperazine-1-carboxamide] | 50 to 200 nM | > 60% | 6.70 to 7.30 | 50 to 200 nM | > 60% | –
CC(=O)c1c(C)c2cnc(Nc3ccc(N4CCN(CCCNc5cccc6c5C(=O)N(C5CCC(=O)NC5=O)C6=O)CC4)cn3)nc2n(C2CCCC2)c1=O (stereo not drawn) [Compound 62, 4-((3-(4-(6-((6-acetyl-8-cyclopentyl-5-methyl-7-oxo-7,8-dihydropyrido[2,3-d]pyrimidin-2-yl)amino)pyridin-3-yl)piperazin-1-yl)propyl)amino)-2-(2,6-dioxopiperidin-3-yl) isoindoline-1,3-dione] | 50 to 200 nM | > 80% | > 7.30 | 50 to 200 nM | > 80% | –
Cc1nc2c(F)cc(-c3nc(Nc4ccc(CN5CCN(CC6CCN(c7ccc(NC8CCC(=O)NC8=O)cc7)CC6)CC5)cn4)ncc3F)cc2n1C(C)C (stereo not drawn) [Compound 152, 3-((4-(4-((4-((6-((5-fluoro-4-(4-fluoro-1-isopropyl-2-methyl-1H-benzo[d]imidazol-6-yl)pyrimidin-2-yl)amino)pyridin-3-yl)methyl)piperazin-1-yl)methyl)piperidin-1-yl)phenyl)amino) piperidine-2,6-dione] | 50 to 200 nM | > 80% | > 7.30 | < 50 nM | > 80% | –

Further lines, with some results ahead:

DC50 (CDK6) | Dmax (CDK6) | pIC50 [1] | DC50 (CDK4) | Dmax (CDK4) | SMILES | inhibition of cell proliferation of Mino cells ([1]; Mino cells, 0-1 μM, result in words)
50 to 200 nM | > 60% | 6.70 to 7.30 | 50 to 200 nM | > 60% | CC(=O)c1c(C)c2cnc(Nc3ccc(N4CCN(CCN5CCN(C(=O)Nc6ccc7c(c6)CN(C6CCC(=O)NC6=O)C7=O)CC5)CC4)cn3)nc2n(C2CCCC2)c1=O (stereo not drawn) [Compound 44] | –
50 to 200 nM | > 60% | 6.70 to 7.30 | 50 to 200 nM | > 60% | CC(=O)c1c(C)c2cnc(Nc3ccc(N4CCN(C5CCN(C(=O)N6CCC(CCN7CCN(c8ccc9c(c8)C(=O)N(C8CCC(=O)NC8=O)C9=O)CC7)CC6)CC5)CC4)cn3)nc2n(C2CCCC2)c1=O (stereo not drawn) [Compound 87, 5-(4-(2-(1-(4-(4-(6-((6-acetyl-8-cyclopentyl-5-methyl-7-oxo-7,8-dihydropyrido[2,3-d]pyrimidin-2-yl)amino)pyridin-3-yl)piperazin-1-yl)piperidine-1-carbonyl)piperidin-4-yl)ethyl)piperazin-1-yl)-2-(2,6-dioxopiperidin-3-yl) isoindoline-1,3-dione] | –
50 to 200 nM | > 60% | 6.70 to 7.30 | 50 to 200 nM | > 60% | Cc1nc2c(F)cc(-c3nc(Nc4ccc(CN5CCN(C6CN(c7cccc8c7CN(C7CCC(=O)NC7=O)C8=O)C6)CC5)cn4)ncc3F)cc2n1C(C)C (stereo not drawn) [Compound 99, 3-(4-(3-(4-((6-((5-fluoro-4-(4-fluoro-1-isopropyl-2-methyl-1H-benzo[d]imidazol-6-yl)pyrimidin-2-yl)amino)pyridin-3-yl)methyl)piperazin-1-yl)azetidin-1-yl)-1-oxoisoindolin-2-yl)piperidine-2,6-dione] | –
< 50 nM | > 80% | > 7.30 | < 50 nM | > 80% | Cc1nc2c(F)cc(-c3nc(Nc4ccc(CC5CCN(CC6CCN(c7ccc8c(c7)C(=O)N(C7CCC(=O)NC7=O)C8=O)CC6)CC5)cn4)ncc3F)cc2n1C(C)C (stereo not drawn) [Compound 157, 2-(2,6-dioxopiperidin-3-yl)-5-(4-((4-((6-((5-fluoro-4-(4-fluoro-1-isopropyl-2-methyl-1H-benzo[d]imidazol-6-yl)pyrimidin-2-yl)amino)pyridin-3-yl)methyl)piperidin-1-yl)methyl)piperidin-1-yl)isoindoline-1,3-dione] | –
< 50 nM | > 80% | > 7.30 | < 50 nM | > 80% | Cc1nc2c(F)cc(-c3nc(Nc4ccc(CN5CCN(CC6CN(c7ccc(NC8CCC(=O)NC8=O)cc7)C6)CC5)cn4)ncc3F)cc2n1C(C)C (stereo not drawn) [Compound 134] | –
50 to 200 nM | > 60% | 6.70 to 7.30 | 50 to 200 nM | > 60% | CC(=O)c1c(C)c2cnc(Nc3ccc(N4CCN(CC5CCN(c6cccc7c6C(=O)N(C6CCC(=O)NC6=O)C7=O)CC5)CC4)cn3)nc2n(C2CCCC2)c1=O (stereo not drawn) [Compound 78, 4-(4-((4-(6-((6-acetyl-8-cyclopentyl-5-methyl-7-oxo-7,8-dihydropyrido[2,3-d]pyrimidin-2-yl)amino)pyridin-3-yl)piperazin-1-yl)methyl)piperidin-1-yl)-2-(2,6-dioxopiperidin-3-yl) isoindoline-1,3-dione] | –
< 50 nM | > 80% | > 7.30 | < 50 nM | > 80% | CC(=O)c1c(C)c2cnc(Nc3ccc(N4CCN(CCCNc5ccc6c(c5)CN(C5CCC(=O)NC5=O)C6=O)CC4)cn3)nc2n(C2CCCC2)c1=O (stereo not drawn) [Compound 50, 3-(5-((3-(4-(6-((6-acetyl-8-cyclopentyl-5-methyl-7-oxo-7,8-dihydropyrido[2,3-d]pyrimidin-2-yl)amino)pyridin-3-yl)piperazin-1-yl)propyl)amino)-1-oxoisoindolin-2-yl)piperidine-2,6-dione] | dose-dependent inhibition of cell proliferation
